# Measurements published in patent US8192962B2, “Processes for detecting toxic substances” (Daikin Industries, Ltd., priority 2001, dated 2012).
# System: DNA repair protein genes
# Test: DNA chip mRNA expression in yeast, DNA repair protein genes (Table 3)
# Format: cell-based, Saccharomyces cerevisiae S288C
# Conditions: incubated two hours, concentrations as in the 1st table
# In short: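 Cells were grown at 25° C. in YPD, treated at logarithmic phase for 2 h with a chemical at a concentration inhibiting growth but not causing death, and compared with untreated cultures. Labeled cDNA was hybridized to a DNA chip carrying all yeast genes, and the expression ratio was taken from scanner fluorescence.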
smiles,measurement,setting,value
"Cl[C@H]1[C@H](Cl)[C@@H](Cl)[C@@H](Cl)[C@H](Cl)[C@H]1Cl [(7), γ-hexachlorocyclohexane]",The level of expressed mRNA in the presence of chemical substance/The level of expressed mRNA in the absence of chemical substance,yeast gene YAL015C,1.2
same,The level of expressed mRNA in the presence of chemical substance/The level of expressed mRNA in the absence of chemical substance,yeast gene YAR007C,0.8
same,The level of expressed mRNA in the presence of chemical substance/The level of expressed mRNA in the absence of chemical substance,yeast gene YBL019W,1.2
same,The level of expressed mRNA in the presence of chemical substance/The level of expressed mRNA in the absence of chemical substance,yeast gene YBR073W,0.6
same,The level of expressed mRNA in the presence of chemical substance/The level of expressed mRNA in the absence of chemical substance,yeast gene YBR272C,1.9
same,The level of expressed mRNA in the presence of chemical substance/The level of expressed mRNA in the absence of chemical substance,yeast gene YCR014C,1.1
same,The level of expressed mRNA in the presence of chemical substance/The level of expressed mRNA in the absence of chemical substance,yeast gene YDL017W,1.1
same,The level of expressed mRNA in the presence of chemical substance/The level of expressed mRNA in the absence of chemical substance,yeast gene YDL059C,1.1
same,The level of expressed mRNA in the presence of chemical substance/The level of expressed mRNA in the absence of chemical substance,yeast gene YDL200C,1.7
same,The level of expressed mRNA in the presence of chemical substance/The level of expressed mRNA in the absence of chemical substance,yeast gene YDR054C,1.1
same,The level of expressed mRNA in the presence of chemical substance/The level of expressed mRNA in the absence of chemical substance,yeast gene YDR369C,0.4
same,The level of expressed mRNA in the presence of chemical substance/The level of expressed mRNA in the absence of chemical substance,yeast gene YEL019C,1.2
same,The level of expressed mRNA in the presence of chemical substance/The level of expressed mRNA in the absence of chemical substance,yeast gene YEL037C,0.8
same,The level of expressed mRNA in the presence of chemical substance/The level of expressed mRNA in the absence of chemical substance,yeast gene YER162C,0.5
same,The level of expressed mRNA in the presence of chemical substance/The level of expressed mRNA in the absence of chemical substance,yeast gene YFL014W,5.5
same,The level of expressed mRNA in the presence of chemical substance/The level of expressed mRNA in the absence of chemical substance,yeast gene YGL058W,0.0
same,The level of expressed mRNA in the presence of chemical substance/The level of expressed mRNA in the absence of chemical substance,yeast gene YGL091C,1.3
same,The level of expressed mRNA in the presence of chemical substance/The level of expressed mRNA in the absence of chemical substance,yeast gene YGL127C,1.0
same,The level of expressed mRNA in the presence of chemical substance/The level of expressed mRNA in the absence of chemical substance,yeast gene YGL163C,1.0
same,The level of expressed mRNA in the presence of chemical substance/The level of expressed mRNA in the absence of chemical substance,yeast gene YGL249W,1.2
same,The level of expressed mRNA in the presence of chemical substance/The level of expressed mRNA in the absence of chemical substance,yeast gene YGR180C,0.5
same,The level of expressed mRNA in the presence of chemical substance/The level of expressed mRNA in the absence of chemical substance,yeast gene YGR231C,2.1
same,The level of expressed mRNA in the presence of chemical substance/The level of expressed mRNA in the absence of chemical substance,yeast gene YGR258C,1.5
same,The level of expressed mRNA in the presence of chemical substance/The level of expressed mRNA in the absence of chemical substance,yeast gene YHR164C,0.8
same,The level of expressed mRNA in the presence of chemical substance/The level of expressed mRNA in the absence of chemical substance,yeast gene YIL036W,1.4
same,The level of expressed mRNA in the presence of chemical substance/The level of expressed mRNA in the absence of chemical substance,yeast gene YIL072W,1.7
same,The level of expressed mRNA in the presence of chemical substance/The level of expressed mRNA in the absence of chemical substance,yeast gene YIL143C,0.8
same,The level of expressed mRNA in the presence of chemical substance/The level of expressed mRNA in the absence of chemical substance,yeast gene YIL153W,1.6
same,The level of expressed mRNA in the presence of chemical substance/The level of expressed mRNA in the absence of chemical substance,yeast gene YIR002C,1.3
same,The level of expressed mRNA in the presence of chemical substance/The level of expressed mRNA in the absence of chemical substance,yeast gene YJL026W,0.5
same,The level of expressed mRNA in the presence of chemical substance/The level of expressed mRNA in the absence of chemical substance,yeast gene YJR046W,0.9
same,The level of expressed mRNA in the presence of chemical substance/The level of expressed mRNA in the absence of chemical substance,yeast gene YJR052W,1.2
same,The level of expressed mRNA in the presence of chemical substance/The level of expressed mRNA in the absence of chemical substance,yeast gene YKL145W,1.6
same,The level of expressed mRNA in the presence of chemical substance/The level of expressed mRNA in the absence of chemical substance,yeast gene YLR103C,1.3
same,The level of expressed mRNA in the presence of chemical substance/The level of expressed mRNA in the absence of chemical substance,yeast gene YLR233C,0.8
same,The level of expressed mRNA in the presence of chemical substance/The level of expressed mRNA in the absence of chemical substance,yeast gene YLR288C,1.3
same,The level of expressed mRNA in the presence of chemical substance/The level of expressed mRNA in the absence of chemical substance,yeast gene YML032C,0.8
same,The level of expressed mRNA in the presence of chemical substance/The level of expressed mRNA in the absence of chemical substance,yeast gene YML058W,0.6
same,The level of expressed mRNA in the presence of chemical substance/The level of expressed mRNA in the absence of chemical substance,yeast gene YMR035W,2.3
same,The level of expressed mRNA in the presence of chemical substance/The level of expressed mRNA in the absence of chemical substance,yeast gene YMR072W,1.4
same,The level of expressed mRNA in the presence of chemical substance/The level of expressed mRNA in the absence of chemical substance,yeast gene YMR096W,1.9
same,The level of expressed mRNA in the presence of chemical substance/The level of expressed mRNA in the absence of chemical substance,yeast gene YMR284W,0.8
same,The level of expressed mRNA in the presence of chemical substance/The level of expressed mRNA in the absence of chemical substance,yeast gene YNL213C,1.4
same,The level of expressed mRNA in the presence of chemical substance/The level of expressed mRNA in the absence of chemical substance,yeast gene YNL250W,1.2
same,The level of expressed mRNA in the presence of chemical substance/The level of expressed mRNA in the absence of chemical substance,yeast gene YNL261W,1.0
same,The level of expressed mRNA in the presence of chemical substance/The level of expressed mRNA in the absence of chemical substance,yeast gene YNL312W,0.5
same,The level of expressed mRNA in the presence of chemical substance/The level of expressed mRNA in the absence of chemical substance,yeast gene YOL043C,1.0
same,The level of expressed mRNA in the presence of chemical substance/The level of expressed mRNA in the absence of chemical substance,yeast gene YOR005C,1.4
same,The level of expressed mRNA in the presence of chemical substance/The level of expressed mRNA in the absence of chemical substance,yeast gene YOR386W,1.8
same,The level of expressed mRNA in the presence of chemical substance/The level of expressed mRNA in the absence of chemical substance,yeast gene YPL022W,0.8
same,The level of expressed mRNA in the presence of chemical substance/The level of expressed mRNA in the absence of chemical substance,yeast gene YPL164C,0.9
same,The level of expressed mRNA in the presence of chemical substance/The level of expressed mRNA in the absence of chemical substance,yeast gene YPL194W,1.5
same,The level of expressed mRNA in the presence of chemical substance/The level of expressed mRNA in the absence of chemical substance,yeast gene YPR025C,1.4
"C[S+](C)[O-] [(15), dimethylsulfoxide]",The level of expressed mRNA in the presence of chemical substance/The level of expressed mRNA in the absence of chemical substance,yeast gene YBR272C,0.5
same,The level of expressed mRNA in the presence of chemical substance/The level of expressed mRNA in the absence of chemical substance,yeast gene YCR014C,0.7
same,The level of expressed mRNA in the presence of chemical substance/The level of expressed mRNA in the absence of chemical substance,yeast gene YDL059C,0.7
same,The level of expressed mRNA in the presence of chemical substance/The level of expressed mRNA in the absence of chemical substance,yeast gene YDR054C,1.6
same,The level of expressed mRNA in the presence of chemical substance/The level of expressed mRNA in the absence of chemical substance,yeast gene YEL037C,1.6
same,The level of expressed mRNA in the presence of chemical substance/The level of expressed mRNA in the absence of chemical substance,yeast gene YGL091C,0.7
same,The level of expressed mRNA in the presence of chemical substance/The level of expressed mRNA in the absence of chemical substance,yeast gene YGL249W,0.7
same,The level of expressed mRNA in the presence of chemical substance/The level of expressed mRNA in the absence of chemical substance,yeast gene YGR180C,1.3
same,The level of expressed mRNA in the presence of chemical substance/The level of expressed mRNA in the absence of chemical substance,yeast gene YIL072W,1.4
same,The level of expressed mRNA in the presence of chemical substance/The level of expressed mRNA in the absence of chemical substance,yeast gene YIL143C,1.3
same,The level of expressed mRNA in the presence of chemical substance/The level of expressed mRNA in the absence of chemical substance,yeast gene YNL250W,1.3
same,The level of expressed mRNA in the presence of chemical substance/The level of expressed mRNA in the absence of chemical substance,yeast gene YNL261W,0.7
same,The level of expressed mRNA in the presence of chemical substance/The level of expressed mRNA in the absence of chemical substance,yeast gene YPL164C,1.3
